Results: US12441774B2, “Molecular guide system peptides and uses thereof” (SRI International, priority 2017, dated 2025)
“Also recorded” adds a separate entry of the source. Where a SMILES comes first, the peptide text is derived from it. Primed or numbered codes have the meaning given here. Where no end group is shown, it is not given here. [ ]: non-standard residue; d: D form. PEG11 = NCCOCCOCCOCCOCCOCCOCCOCCOCCOCCOCCOCCC(=O)O; PEG11′ = not defined here

How the values were obtained:
[1] = tested on: non-small cell lung cancer cells; assay: Cellular location of MGS, non-small cell lung cancer cells; type: cell-based; conditions: Intracellular = uptake confirmed, exact compartment not determined
Source text: (§1) The FOX-Three Platform has already been validated for targeting of cells and subcellular components. A number of validated MGSs are in various stages of development (Tables 1 and 2) for a variety of cell targeting systems. Methods of conjugating a variety of payloads to the peptide MGSs have been established without disrupting their targeting ability. […] While cell targeting has been established and there are a number of competing antibody-based technologies for targeting the surfaces of target cells, intracellular MGSs were not previously known. […] For example, delivery of a MAb intended to bind to proteins involved in DNA replication in the cell nucleus will be therapeutically ineffective if trapped in the Golgi or other locations in the cell. The FOX-Three screening process was recently refined to include subcellular location targeting as a selection criteria. MGSs have been isolated that accumulate in lysosomes, autophagosomes, and Golgi inside cancer cells, as well as target the plasma membrane (FIG. 3).

cellular receptor = assay: Receptor recycle vs new receptor synthesis in MGS internalization; type: cell-based
Lymphoma Cells = assay: Cellular location of MGS, lymphoma cells; type: cell-based
Source text: as §1

NSCLC cell lines = assay: Cellular uptake kinetics of valency versions of HCC15.2; type: cell-based; conditions: 4 NSCLC cell lines
EphA2 [2] = molecular target: T1, EphA2 (Homo sapiens, UniProt P29317); assay: MGS_H1299.2 V4 binding to purified EphA2; conditions: EphA2 study
T1 construct: endogenous in cells
Source text: (§2) The cellular receptor for MGS_H1299.2 v4 is EphA2. The following results were obtained during a study on EphA2.

EphA2 [3] = molecular target: T1, EphA2; assay: EphA2 dependence of MGS_H1299.2 V4 cell binding and internalization; type: cell-based
Source text: as §2

[4] = tested on: non-small cell lung cancer cells; assay: Binding to non-small cell lung cancer cells versus normal control cells; type: cell-based
Source text: (§3) The peptide EHPWFNMWSWATQVQE (SEQ ID NO:38) (H2009.2) has been pushed forward first.

cancer cell = assay: Delivery of cell impermeable protein-toxin, cancer cell death; type: cell-based; conditions: peptide delivering a cell impermeable protein-toxin
Source text: as §3

viable cells in culture = assay: Cellular uptake of MGS-conjugated MAb (flow cytometry); type: cell-based
Protocol: Peptide MGS with a biotin tag (“handle”) was coupled to an anti-biotin antibody. The antibody was labeled with a fluorescent tag. Panel A. MGS peptide-antibody was incubated with viable cells in culture. Uptake of the antibody into the cells was determined by flow cytometry and normalized to antibody uptake with no MGS peptide. Panel B. Uptake of the antibody was determined by fluorescent microscopy and is indicated by red “dots” in the left panel. The MGS peptide can deliver the antibody to the desired location. Using a MGS peptide that internalizes and directs cargo to the Golgi apparatus in the cell, an antibody was delivered to that subcellular compartment. Panel C. MGS peptide-Antibody was injected I.V. into a tumor bearing mouse. At set times points, near-infrared imaging was used to determine uptake of the antibody in the tumor.
A small peptidic-MGS delivers a large monoclonal antibody into a cell in vitro and in vivo. Small peptides would not be able to carry a MAb that is almost greater than 60-times its molecular weight. Cells were treated with a MAb alone and no cellular uptake occurred. But when that MAb was conjugated to one of the identified MGS peptides, a […] increase in cellular uptake was seen.
Peptidic-MGSs can deliver a MAb and increases cellular uptake by 20-380 (FIG. 4A). Peptidic-MGS can deliver a MAb to a discrete subcellular location as dictated by the MGS. […]

Cardiomyocytes = assay: Cellular location of MGS, cardiomyocytes; type: cell-based; conditions: Intracellular = uptake confirmed, exact compartment not determined
Source text: as §1

Dendritic Cells = assay: Cellular location of MGS, dendritic cells; type: cell-based; conditions: Intracellular = uptake confirmed, exact compartment not determined
Source text: as §1

T1 sequence (P29317 24-976, species assumed): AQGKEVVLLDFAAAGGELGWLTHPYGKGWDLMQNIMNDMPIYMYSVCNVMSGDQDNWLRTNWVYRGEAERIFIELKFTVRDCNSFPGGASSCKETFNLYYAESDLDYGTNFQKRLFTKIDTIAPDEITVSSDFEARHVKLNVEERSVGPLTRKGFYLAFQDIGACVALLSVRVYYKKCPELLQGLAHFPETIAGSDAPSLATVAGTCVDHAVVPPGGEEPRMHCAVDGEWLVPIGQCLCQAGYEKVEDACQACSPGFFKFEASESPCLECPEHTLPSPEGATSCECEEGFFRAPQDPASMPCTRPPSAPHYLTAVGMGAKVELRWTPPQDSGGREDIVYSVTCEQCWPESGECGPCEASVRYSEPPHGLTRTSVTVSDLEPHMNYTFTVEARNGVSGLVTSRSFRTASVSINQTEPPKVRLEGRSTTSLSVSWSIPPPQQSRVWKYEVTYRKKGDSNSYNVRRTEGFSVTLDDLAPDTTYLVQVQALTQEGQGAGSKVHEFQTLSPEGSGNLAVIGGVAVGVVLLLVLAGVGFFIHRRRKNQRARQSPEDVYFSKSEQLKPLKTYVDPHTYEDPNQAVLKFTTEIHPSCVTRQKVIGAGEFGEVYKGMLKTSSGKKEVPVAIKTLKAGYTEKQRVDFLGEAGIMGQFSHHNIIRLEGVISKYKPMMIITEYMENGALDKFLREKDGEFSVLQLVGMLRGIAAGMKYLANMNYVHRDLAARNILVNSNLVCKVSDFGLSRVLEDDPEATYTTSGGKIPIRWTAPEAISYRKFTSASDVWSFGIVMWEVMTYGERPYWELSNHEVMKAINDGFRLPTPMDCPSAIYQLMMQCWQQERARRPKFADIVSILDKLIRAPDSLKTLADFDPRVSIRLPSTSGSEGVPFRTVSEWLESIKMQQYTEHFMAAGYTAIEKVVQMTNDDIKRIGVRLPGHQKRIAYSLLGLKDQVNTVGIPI

Compound | Cellular Location [1] | further results
AHTIDDEWASYHMQQWNSPP [MGS_H2009.4] | MGS_H2009.4_Golgi/ER | –
YAAWPASGAWTGTAPCSAGT [MGS_H1299.2] | MGS_H1299.2_Intracellular | –
CH3CO—LQWRRNFGVWARYRL—PEG11—C—NH2 (Ac-LQWRRNFGVWARYRL[PEG11′]C-NH2) [HCC15.1 v4] | – | fate of the bound cellular receptor upon internalization (cellular receptor): primarily degraded upon internalization
SAKTAVSQRVWLPSHRGGEP [MGS_A20.1] | – | Cellular Location (Lymphoma Cells): MGS_A20.1_PlasmaMembrane
QEALEEWFWKMMPWSGPSGQ [MGS_H1993.3] | MGS_H1993.3_Intracellular | –
MTVCNASQRQAHAQATAVSL [MGS_A549.1] | MGS_A549.1_Intracellular | –
MDGATWWTQLDPLLVWEGET [MGS_H1993.5] | MGS_H1993.5_Intracellular | –
RGDLATLRQLAQEDGVVGVR [MGS_H2009.1] | MGS_H2009.1_Golgi | –
FHAVPQSFYTAP [MGS_HCC15.2] | MGS_HCC15.2_Intracellular | change of peptide affinity with valency (NSCLC cell lines; dimer): significant enhancement of peptide affinity with dimerization; change of peptide affinity with valency (NSCLC cell lines; tetramer): modest improvement upon tetramerization
CH3CO—RGDLATLRQL—PEG11—YC—NH2 (Ac-RGDLATLRQL[PEG11′]YC-NH2) [MGS_H2009.1 v4] | – | fate of the bound cellular receptor upon internalization (cellular receptor): rapidly recycled back to the cell surface
SVEYWGERMYYDVMESLGFS [MGS_H1993.1] | MGS_H1993.1_Lysosome | –
ATEPRKQYATPRVFWTDAPG [MGS_HCC15.1] | MGS_HCC15.1_Intracellular | –
CC(=O)N[C@@H](Cc1ccc(O)cc1)C(=O)N[C@@H](C)C(=O)N[C@@H](C)C(=O)N[C@@H](Cc1c[nH]c2ccccc12)C(=O)N1CCC[C@H]1C(=O)N[C@@H](C)C(=O)N[C@@H](CO)C(=O)NCC(=O)N[C@@H](C)C(=O)N[C@@H](Cc1c[nH]c2ccccc12)C(=O)N[C@H](C(=O)NCCOCCOCCOCCOCCOCCOCCOCCOCCOCCOCCOCCC(=O)N[C@@H](CS)C(N)=O)[C@@H](C)O [MGS_H1299.2 V4, CH3CO—YAAWPASGAWT—PEG11—C—NH2] (Ac-YAAWPASGAWT[PEG11]C-NH2) | – | competition with EprhrinA1 for binding (EphA2 [2]): compete for binding; EphA2 internalization and co-localization (EphA2 [3]): induces EphaA2 internalization and co-localizes with the receptor in lysosome; peptide binding to cells (EphA2 [3]; increasing EphA2 in cells): increases MGS_H1299.2 V4 binding; peptide binding to cells (EphA2 [3]; reduction of EphA2 in cells): abrogates MGS_H1299.2 V4 binding; fate of the bound cellular receptor upon internalization (cellular receptor): primarily degraded upon internalization
YPGSPTQYPSSMHEYHSSSE [MGS_H2009.3] | MGS_H2009.3_Lysosome | –
FAAKRAEWWDPGQLWDAVWN [MGS_H1993.2] | MGS_H1993.2_Intracellular | –
LQWRRDDNVHNFGVWARYRL (Ac-LQWRRDDNVHNFGVWARYRL) [MGS_1299.3] | MGS_1299.3_Lysosome/; also recorded: Autophagosomes | –
TWTDFGQWPWPFGAEGTRAF [MGS_H1993.4] | MGS_H1993.4_Pre-mitotic cells only | –
KSREHVNNSACPSKRITAAL [MGS_A20.2] | – | Cellular Location (Lymphoma Cells): MGS_A20.2_Plasma Membrane
EHPWFNMWSWATQVQE [MGS_H2009.2] | MGS_H2009.2_Lysosome | cell binding specificity [4]: binds to 3 different non-small cell lung cancer cells with minimal binding to normal control cells; potency to induce cell death (cancer cell): 80 nM; intracellular delivery of MAb (viable cells in culture): delivers a MAb intracellularly
WLSEAGPVVTVRALRGTGSW [MGS_PCM.1] | – | Cellular Location (Lymphoma Cells): MGS_PCM.1_Plasma Membrane; Cellular Location (Cardiomyocytes): MGS_PCM.1_Intracellular
SADWFQGPAEWLLEGWMGPL [MGS_H1993.6] | MGS_H1993.6_Intracellular | –
CH3CO—FHAVPQSFYT—PEG11—C—NH2 (Ac-FHAVPQSFYT[PEG11′]C-NH2) [HCC15.2 v8] | – | fate of the bound cellular receptor upon internalization (cellular receptor): primarily degraded upon internalization
EAMNSAEQSAAVVQWEKRRI [MGS_H460.1] | MGS_H460.1_PlasmaMembrane | –
GPEDTSRAPENQQKTFHRRW [MGS_XS52.1] | – | Cellular Location (Dendritic Cells): MGS_XS52.1_Intacellular
FEEFYSRQSNTIPYPQQYKG [MGS_H2009.5] | MGS_H2009.5_ER/Lysosome | –
VSQTMRQTAVPLLWFWTGSL [MGS_H1299.1] | MGS_H1299.1_Intracellular | –
